Article PMC7038240 (Antimicrobial Agents and Chemotherapy, 2020)
Read-outs that look alike come from different tables or passages of the source.

How the values were obtained:
Assay type in all cases: cell-based
C. freundii = test: microbe, parasite or virus in culture; details: Citrobacter freundii
Excerpt: (§1) The antibacterial activity of cefepime-taniborbactam was compared to that of ceftazidime-avibactam, ceftolozane-tazobactam, and cefepime-tazobactam against a diverse panel of Enterobacterales and P. aeruginosa clinical isolates with defined β-lactamase subtypes (see Table S1 in the supplemental material). IMP-producing strains were excluded, as none of the BLI-protected cephalosporins inhibited IMP sufficiently to provide a clinically relevant rescue of the partner β-lactam, a characteristic also shared by approved BLI-protected carbapenems (meropenem-vaborbactam and imipenem-relebactam). […] The antibacterial activity of the cephalosporins alone was included to ascertain the level of potentiation by the partnered BLI. BLIs were tested at a fixed concentration of 4 μg/ml in all combinations except cefepime-tazobactam, where tazobactam was fixed at a concentration of 8 μg/ml ([38]). The collection comprised 143 clinical isolates collected from 2005 and 2018.
(§2) The in vitro antibacterial activity of the β-lactams alone or in combination with the BLIs was determined in cation-adjusted Mueller-Hinton broth (CAMHB) microdilution assays according to CLSI recommendations ([51]). […]. The inocula for the broth microdilution assays were prepared by the broth culture method ([51]). […]

P. aeruginosa = test: microbe, parasite or virus in culture; details: Pseudomonas aeruginosa, read-out: MIC
Excerpt: as §1, §2

S. typhi = test: microbe, parasite or virus in culture; details: Salmonella enterica, strain 26A, AmpC/TEM-1
Excerpt: as §1, §2

S. marcescens = test: microbe, parasite or virus in culture; details: Serratia marcescens
Excerpt: as §1, §2

K. oxytoca = test: microbe, parasite or virus in culture; details: Klebsiella oxytoca, read-out: MIC
Excerpt: as §1, §2

K. aerogenes = test: microbe, parasite or virus in culture; details: Klebsiella aerogenes
Excerpt: as §1, §2

E. coli = test: microbe, parasite or virus in culture; details: Escherichia coli, read-out: MIC
Excerpt: as §1, §2

S. paratyphi = test: microbe, parasite or virus in culture; details: Salmonella enterica, strain 527, AmpC/TEM-1
Excerpt: as §1, §2

K. pneumoniae = test: microbe, parasite or virus in culture; details: Klebsiella pneumoniae, read-out: MIC
Excerpt: as §1, §2

M. morgannii = test: organism not typed; details: strain 769909; OXA-48
Excerpt: as §1, §2

## Cn1c(N)c(NC(=O)NCCN)c[n+]1CC1=C(C(=O)O)N2C(=O)[C@@H](NC(=O)/C(=N\OC(C)(C)C(=O)[O-])c3nsc(N)n3)[C@H]2SC1 [TOL]
C. freundii; strain 134390, AmpC/TEM-1
  MIC: 8 µg/mL
C. freundii; strain 241181, AmpC/TEM-163
  MIC: 16 µg/mL
P. aeruginosa; ATCC27853, strain ATCC 27853, W.T.
  MIC: 1 µg/mL
P. aeruginosa; strain 10.257, PDC-50
  MIC: 16 µg/mL
P. aeruginosa; strain 11.516, PDC-79
  MIC: 64 µg/mL
P. aeruginosa; strain 11.698, PDC-87
  MIC: 32 µg/mL
P. aeruginosa; strain 11.813, PDC-91
  MIC: 8 µg/mL
P. aeruginosa; strain 13.1716, PDC-74
  MIC: 128 µg/mL
P. aeruginosa; strain 13.1717, PDC-74
  MIC: 64 µg/mL
P. aeruginosa; strain 13.1737, PDC-80
  MIC: 128 µg/mL
P. aeruginosa; strain 13.1755, PDC-86
  MIC: 128 µg/mL
P. aeruginosa; strain 13.1760, PDC-77
  MIC: 32 µg/mL
P. aeruginosa; strain 13.1775, PDC-87
  MIC: 16 µg/mL
P. aeruginosa; strain 247.3D, VIM-2
  MIC: ≥ 256 µg/mL
P. aeruginosa; strain 1129, PDC
  MIC: 1 µg/mL
P. aeruginosa; strain 3615, PDC/TEM-1
  MIC: 4 µg/mL
P. aeruginosa; strain 5671, VIM-1
  MIC: 64 µg/mL
P. aeruginosa; strain 8273, PDC/TEM-1
  MIC: 1 µg/mL
P. aeruginosa; strain 164951, W.T.
  MIC: 1 µg/mL
P. aeruginosa; strain 377860, W.T.
  MIC: 1 µg/mL
P. aeruginosa; strain 384743, PDC/TEM-1
  MIC: 16 µg/mL
P. aeruginosa; strain 1013996, KPC-2
  MIC: 16 µg/mL
P. aeruginosa; strain 1071703, GES-6
  MIC: 32 µg/mL
P. aeruginosa; strain 1113755, GES-5
  MIC: ≥ 256 µg/mL
P. aeruginosa; strain 1138223, GES-19
  MIC: ≥ 256 µg/mL
P. aeruginosa; strain 1138337, GES-19
  MIC: ≥ 256 µg/mL
P. aeruginosa; strain 1258509, GES-6
  MIC: 64 µg/mL
P. aeruginosa; strain 1275655, GES-20
  MIC: ≥ 256 µg/mL
P. aeruginosa; strain 1300089, GES-19
  MIC: ≥ 256 µg/mL
P. aeruginosa; strain 1313666, KPC-2
  MIC: 32 µg/mL
P. aeruginosa; strain CDC-0090, KPC
  MIC: 32 µg/mL
P. aeruginosa; strain PA2, W.T.
  MIC: 2 µg/mL
P. aeruginosa; strain PAA1-9G1, GES-5
  MIC: ≥ 256 µg/mL
P. aeruginosa; strain PAA1-9G2, GES-5
  MIC: ≥ 256 µg/mL
P. aeruginosa; strain PS-12, VIM-2
  MIC: ≥ 256 µg/mL
P. aeruginosa; strain PS-32, VIM-2
  MIC: 128 µg/mL
P. aeruginosa; strain Paeβ-04, 100-fold ↑ PDC-2/30% OprD/5.6x ↑ABM
  MIC: 2 µg/mL
P. aeruginosa; strain Paeβ-10, 67-fold ↑ PDC-2/0.1% OprD/5.7x↑ABM
  MIC: 2 µg/mL
P. aeruginosa; strain Paeβ-15, 310-fold ↑ PDC-2/10% OprD/4.4x↑XYM
  MIC: 4 µg/mL
P. aeruginosa; strain Paeβ-17, 62-fold ↑PDC-3/30% OprD/10.2x and 9.9x ↑XYM and CDJ
  MIC: 2 µg/mL
P. aeruginosa; strain Paeβ-18, 600-fold ↑ PDC-3/<0.01% OprD/3.9x and 5.6x ↑ABM and XYM
  MIC: 16 µg/mL
P. aeruginosa; strain Paeβ-21, 200-fold ↑ PDC-4/10% OprD/13.5x ↑XYM
  MIC: 2 µg/mL
P. aeruginosa; strain Ps296, VIM-2
  MIC: ≥ 256 µg/mL
S. typhi
  MIC: 16 µg/mL
S. marcescens; strain 134434, AmpC/SHV-12/TEM-1
  MIC: 64 µg/mL
S. marcescens; strain 192476, AmpC/TEM-1/SHV-5
  MIC: 64 µg/mL
S. marcescens; strain 192478, AmpC/SHV-12/TEM-1
  MIC: 64 µg/mL
S. marcescens; strain 218073, AmpC/SHV-7/TEM-1
  MIC: 64 µg/mL
K. oxytoca; strain 134943, CMY-2/TEM-1
  MIC: 8 µg/mL
K. oxytoca; strain 847537, KPC
  MIC: ≥ 256 µg/mL
K. aerogenes; strain 73546, AmpC
  MIC: 4 µg/mL
K. aerogenes; strain 110099, AmpC/SHV-12
  MIC: 64 µg/mL
K. aerogenes; strain 111707, AmpC/TEM-1
  MIC: 4 µg/mL
E. coli; strain 469, AmpC/SHV-12/TEM-1
  MIC: 8 µg/mL
E. coli; strain 1924, TEM-12
  MIC: 16 µg/mL
E. coli; strain 664507, OXA-48
  MIC: 64 µg/mL
E. coli; strain 664516, OXA-48
  MIC: 64 µg/mL
E. coli; strain 664520, OXA-48
  MIC: 64 µg/mL
E. coli; strain 664522, OXA-48
  MIC: 128 µg/mL
E. coli; strain 664523, OXA-48
  MIC: 64 µg/mL
E. coli; strain 849121, KPC
  MIC: 32 µg/mL
E. coli; strain 873435, CTX-M-15
  MIC: 128 µg/mL
E. coli; strain 875627, CTX-M-27
  MIC: 16 µg/mL
E. coli; strain 878358, TEM-1/CTX-M
  MIC: 64 µg/mL
E. coli; strain 890500, TEM-1/CTX-M-14
  MIC: 8 µg/mL
E. coli; strain 1275635, VIM-23
  MIC: ≥ 256 µg/mL
E. coli; strain 1459453, NDM-7
  MIC: ≥ 256 µg/mL
E. coli; strain CDC-0001, KPC
  MIC: 64 µg/mL
E. coli; strain CDC-0069, NDM
  MIC: ≥ 256 µg/mL
E. coli; strain CDC-0149, NDM
  MIC: ≥ 256 µg/mL
E. coli; strain EC1552 2A, AmpC/CMY-2/TEM-1, CTX-M-15
  MIC: 16 µg/mL
E. coli; strain ESBL 5, CTX-M-15/TEM-1
  MIC: 128 µg/mL
E. coli; strain SI-LP377, CTX-M-2
  MIC: 32 µg/mL
E. coli; strain SI-M004, SHV-2/GES-12
  MIC: 64 µg/mL
E. coli; strain SI-PO26, AmpC/CMY-2/TEM-1
  MIC: 8 µg/mL
E. coli; strain SI-V502, TEM-29/CTX-M-15
  MIC: 8 µg/mL
E. coli; strain VER, OXA-48
  MIC: 2 µg/mL
S. paratyphi
  MIC: 32 µg/mL
K. pneumoniae; strain 6299, OXA-163
  MIC: ≥ 256 µg/mL
K. pneumoniae; strain 137052, SHV-11/KPC-3/TEM-1
  MIC: 64 µg/mL
K. pneumoniae; strain 178279, SHV-12/TEM-1/AmpC
  MIC: 64 µg/mL
K. pneumoniae; strain 196477, AmpC
  MIC: ≥ 256 µg/mL
K. pneumoniae; strain 212027, AmpC/FOX-5/TEM-1
  MIC: 8 µg/mL
K. pneumoniae; strain 515746, OXA-48
  MIC: 128 µg/mL
K. pneumoniae; strain 664438, OXA-48
  MIC: 128 µg/mL
K. pneumoniae; strain 664439, OXA-48
  MIC: 128 µg/mL
K. pneumoniae; strain 722870, OXA-48
  MIC: 64 µg/mL
K. pneumoniae; strain 752334, OXA-48
  MIC: ≥ 256 µg/mL
K. pneumoniae; strain 769972, OXA-48
  MIC: 128 µg/mL
K. pneumoniae; strain 787422, OXA-48
  MIC: 64 µg/mL
K. pneumoniae; strain 845661, KPC
  MIC: ≥ 256 µg/mL
K. pneumoniae; strain 847204, KPC
  MIC: 64 µg/mL
K. pneumoniae; strain 848562, KPC
  MIC: ≥ 256 µg/mL
K. pneumoniae; strain 848600, KPC
  MIC: ≥ 256 µg/mL
K. pneumoniae; strain 848828, KPC
  MIC: 128 µg/mL
K. pneumoniae; strain 849170, KPC
  MIC: 128 µg/mL
K. pneumoniae; strain 856819, SHV-11/VIM-1
  MIC: ≥ 256 µg/mL
K. pneumoniae; strain 864085, KPC
  MIC: ≥ 256 µg/mL
K. pneumoniae; strain 871489, KPC
  MIC: ≥ 256 µg/mL
K. pneumoniae; strain 873460, SHV-30/CTX-M-15
  MIC: 128 µg/mL
K. pneumoniae; strain 874328, SHV-11/CTX-M-15/NDM-1
  MIC: ≥ 256 µg/mL
K. pneumoniae; strain 882752, SHV-11/TEM-1/KPC-3
  MIC: 128 µg/mL
K. pneumoniae; strain 882956, SHV-31/DHA-1/VIM-1
  MIC: ≥ 256 µg/mL
K. pneumoniae; strain 884679, KPC
  MIC: 64 µg/mL
K. pneumoniae; strain 890066, SHV-33/TEM-33/CTX-M-15/IMP-1
  MIC: ≥ 256 µg/mL
K. pneumoniae; strain 892694, SHV-12/TEM-1/CTX-M-15/OXA-48/ACT
  MIC: ≥ 256 µg/mL
K. pneumoniae; strain 919877, SHV-OSBL/VIM-1
  MIC: ≥ 256 µg/mL
K. pneumoniae; strain 1104864, SHV-OSBL(b)/VIM-1
  MIC: ≥ 256 µg/mL
K. pneumoniae; strain 1104866, SHV-OSBL(b)/VIM-1
  MIC: ≥ 256 µg/mL
K. pneumoniae; strain 1280442, SHV-OSBL(b)/VIM-1
  MIC: ≥ 256 µg/mL
K. pneumoniae; strain CDC-0003, KPC
  MIC: 128 µg/mL
K. pneumoniae; strain CDC-0049, NDM
  MIC: ≥ 256 µg/mL
K. pneumoniae; strain CDC-0117, KPC-3
  MIC: 128 µg/mL
K. pneumoniae; strain CDC-0125, KPC-3
  MIC: 128 µg/mL
K. pneumoniae; strain CDC-0139, NDM-1
  MIC: ≥ 256 µg/mL
K. pneumoniae; strain CDC-0145, NDM
  MIC: ≥ 256 µg/mL
K. pneumoniae; strain CDC-0148, NDM
  MIC: ≥ 256 µg/mL
K. pneumoniae; strain CDC-0152, NDM
  MIC: ≥ 256 µg/mL
K. pneumoniae; strain DOV, OXA-48
  MIC: 128 µg/mL
K. pneumoniae; strain ESBL8 #1, TEM-1/SHV-12
  MIC: 32 µg/mL
K. pneumoniae; strain ESBL 10, SHV-12/TEM-1
  MIC: 32 µg/mL
K. pneumoniae; strain KIRK, OXA-162
  MIC: 128 µg/mL
K. pneumoniae; strain KP 3, SHV-1/TEM-1
  MIC: ≥ 256 µg/mL
K. pneumoniae; strain KPN 508, SHV-7/TEM-1
  MIC: 32 µg/mL
K. pneumoniae; strain SI-C05, OXA-48
  MIC: ≥ 256 µg/mL
K. pneumoniae; strain SI-F100, SHV-5/TEM-1/CMY-2
  MIC: 16 µg/mL
K. pneumoniae; strain SI-KP NO30, TEM-26b/SHV-60/SHV-26
  MIC: 64 µg/mL
M. morgannii
  MIC: 8 µg/mL
